Like-named read-outs stand apart in the source and are kept apart here. Values belong to the compound of their own block, whether it stands above or below them.
What was measured:
[1] = target: T1, human histamine H4 receptor (Homo sapiens, UniProt Q9H3N8); assay: Binding assay on recombinant human histamine H4 receptor (3H-histamine displacement)
T1 construct: expressed in transfected cells; host or cells: SK-N-MC cells or COS7 cells, transiently transfected; membrane preparation
Procedure: Binding Assay on Recombinant Human Histamine H4 Receptor
SK-N-MC cells or COS7 cells were transiently transfected with pH4R and grown in 150 cm^2 tissue culture dishes. Cells were washed with saline solution, scraped with a cell scraper and collected by centrifugation (1000 rpm, 5 min). Cell membranes were prepared by homogenization of the cell pellet in 20 mM Tris-HCl with a polytron tissue homogenizer for 10 s at high speed. Homogenate was centrifuged at 1000 rpm for 5 min at 4° C. The supernatant was then collected and centrifuged at 20,000× g for 25 min at 4° C. The final pellet was resuspended in 50 mM Tris-HCl. Cell membranes were incubated with ^3H-histamine (5-70 nM) in the presence or absence of excess histamine (10000 nM). Incubation occurred at room temperature for 45 min. Membranes were harvested by rapid filtration over Whatman GF/C filters and washed 4 times with ice-cold 50 mM Tris HCl. Filters were then dried, mixed with scintillant and counted for radioactivity. SK-N-MC or COS7 cells expressing human histamine H4 receptor were used to measure the affinity of binding of other compounds and their ability to displace ^3H-ligand binding by incubating the above-described reaction in the presence of various concentrations of inhibitor or compound to be tested.

Mast cells = assay: Mast cell chemotaxis assay (histamine-induced, transwell); format: cell-based; conditions: 10 μM histamine, 3 h at 37° C.
Procedure: Mast Cell Chemotaxis Assay
In addition, it is known that mast cell numbers increase in a number of inflammatory conditions. Some of this is due to chemotaxis of mast cells to the sites of inflammation. This chemotaxis to specific agents can be mimicked in vitro. Transwells (Costar, Cambridge, Mass.) of a pore size 8 μm were coated with 100 μL of 100 ng/mL human fibronectin (Sigma) for 2 h at room temperature. After removal of the fibronectin, 600 μL of RPMI with 5% BSA, in the presence of 10 μM histamine, was added to the bottom chamber. To test the various histamine receptor (HR) antagonists, 10 μM and/or 1 μM solutions of the test compounds were added to the top and bottom chambers. Mast cells (2×10^5/well) were added to the top chamber. The plates were incubated for 3 h at 37° C. Transwells were removed and the cells in the bottom chamber were counted for sixty seconds using a flow cytometer.

human eosinophils [2] = assay: Inhibition of eosinophil shape change (gated autofluorescence forward scatter assay); conditions: for effect on histamine-induced shape change: antagonist, human eosinophils; for Fold Change (eosinophil shape change): 10 μM antagonist
human eosinophils [3] = conditions: cited from earlier work
[4] = Table 1, competition with 3H-histamine, Cheng-Prusoff, KD 5 nM, ligand 5 nM, read-out: Ki

Compound: Cc1cccc2nc(N3CCNCC3)c(=O)[nH]c12 [Example 2, 8-Methyl-3-piperazin-1-yl-1H-quinoxalin-2-one]
Ki ([1]; read-out: Ki): 0.016 µM
% Inh (Mast cells; HR antagonist 1 μM): 50%

Compound: CN1CCN(c2nc3ccc(F)c(F)c3[nH]c2=O)CC1 [Example 22, 7,8-Difluoro-3-(4-methyl-piperazin-1-yl)-1H-quinoxalin-2-one]
Ki [1, 4]: 0.03 µM

Compound: CN(C)CCOC(c1ccccc1)c1ccccc1 [diphenhydramine]
effect on histamine-induced shape change (human eosinophils [2]): did not alter
Fold Change (eosinophil shape change) (human eosinophils [2]; histamine 0 μM): 1.00
Fold Change (eosinophil shape change) (human eosinophils [2]; histamine 0.01 μM): 1.03
Fold Change (eosinophil shape change) (human eosinophils [2]; histamine 0.1 μM): 1.18
Fold Change (eosinophil shape change) (human eosinophils [2]; histamine 1 μM): 1.50
Fold Change (eosinophil shape change) (human eosinophils [2]; histamine 10 μM): 1.63

Compound: C[C@@H](N)Cc1c[nH]cn1 [R-α-methylhistamine]
activation of calcium mobilization (human eosinophils [3]): activate calcium mobilization
potency relative to histamine in calcium mobilization (human eosinophils [3]): significantly less potent than histamine

Compound: CC1CN(c2nc3ccccc3[nH]c2=O)CCN1 (stereo not drawn) [Example 6, 3-(3-Methyl-piperazin-1-yl)-1H-quinoxalin-2-one]
Ki [1, 4]: 0.681 µM

Compound: O=c1[nH]c2cc(Cl)c(Cl)cc2nc1N1CCNCC1 [Example 15, 6,7-Dichloro-3-piperazin-1-yl-1H-quinoxalin-2-one]
Ki ([1]; read-out: Ki): 0.056 µM

Compound: CNC(=C[N+](=O)[O-])NCCSCc1ccc(CN(C)C)o1 [ranatidine]
effect on histamine-induced shape change (human eosinophils [2]): did not alter
Fold Change (eosinophil shape change) (human eosinophils [2]; histamine 0 μM): 1.00
Fold Change (eosinophil shape change) (human eosinophils [2]; histamine 0.01 μM): 1.04
Fold Change (eosinophil shape change) (human eosinophils [2]; histamine 0.1 μM): 1.21
Fold Change (eosinophil shape change) (human eosinophils [2]; histamine 1 μM): 1.49
Fold Change (eosinophil shape change) (human eosinophils [2]; histamine 10 μM): 1.64

Compound: Cc1cccc2nc(N3CCN(C)CC3)c(=O)[nH]c12 [Example 1, 8-Methyl-3-(4-methyl-piperazin-1-yl)-1H-quinoxalin-2-one]
Ki ([1]; read-out: Ki): 0.006 µM
% Inh (Mast cells; HR antagonist 1 μM): 76%

Compound: CN1CCN(c2nc3cc(Cl)ccc3[nH]c2=O)CC1 [Example 9, 6-Chloro-3-(4-methyl-piperazin-1-yl)-1H-quinoxalin-2-one]
Ki ([1]; read-out: Ki): 0.084 µM

Compound: S=C(NC1CCCCC1)N1CCC(c2cnc[nH]2)CC1 [thioperamide]
blockade of calcium mobilization responses (human eosinophils [3]; responses to histamine and R-α-methylhistamine): blocked

Compound: NCCc1c[nH]cn1 [histamine]
shape change in eosinophils (agonist effect) (human eosinophils [2]; histamine alone, 0.01-10 μM): induces a dose-dependent shape change
activation of calcium mobilization (human eosinophils [3]): activate calcium mobilization

Compound: O=c1[nH]c2c(F)c(F)ccc2nc1N1CCNCC1 [Example 4, 7,8-Difluoro-3-piperazin-1-yl-1H-quinoxalin-2-one]
Ki [1, 4]: 0.43 µM

Compound: Cc1cccc2nc(N3CCNC(C)C3)c(=O)[nH]c12 (stereo not drawn) [Example 5, 8-Methyl-3-(3-methyl-piperazin-1-yl)-1H-quinoxalin-2-one]
Ki ([1]; read-out: Ki): 0.04 µM

Compound: 6-Chloro-3-(3-methyl-piperazin-1-yl)-1H-quinoxalin-2-one; and 7-Chloro-3-(3-methyl-piperazin-1-yl)-1H-quinoxalin-2-one [Example 27]
Ki ([1]; read-out: Ki): 0.467 µM

Compound: CN1CCN(c2nc3cc(F)ccc3[nH]c2=O)CC1 [Example 21, 6-Fluoro-3-(4-methyl-piperazin-1-yl)-1H-quinoxalin-2-one]
Ki ([1]; read-out: Ki): 0.039 µM

Compound: 6-Chloro-3-(4-methyl-piperazin-1-yl)-1H-quinoxalin-2-one; and 7-Chloro-3-(4-methyl-piperazin-1-yl)-1H-quinoxalin-2-one [Example 8]
Ki ([1]; read-out: Ki): 0.021 µM

Compound: CN1CCN(c2nc3ccc(Cl)cc3[nH]c2=O)CC1 [Example 10, 7-Chloro-3-(4-methyl-piperazin-1-yl)-1H-quinoxalin-2-one]
Ki ([1]; read-out: Ki): 0.031 µM

Compound: 7-Chloro-3-piperazin-1-yl-1H-quinoxalin-2-one; and 6-Chloro-3-piperazin-1-yl-1H-quinoxalin-2-one [Example 26]
Ki ([1]; read-out: Ki): 0.152 µM

Second part, led by results:

Ki [1, 4]: 0.019 µM
Compound: CN1CCN(c2nc3ccc(C(F)(F)F)cc3[nH]c2=O)CC1 [Example 13, 3-(4-Methyl-piperazin-1-yl)-7-trifluoromethyl-1H-quinoxalin-2-one]

IC50 (human eosinophils [2]; Homo sapiens, Eosinophil, read-out: IC50, inhibition of histamine-induced eosinophil shape change): 0.27 µM
Compound: CN1CCN(C(=O)c2cc3cc(Cl)ccc3[nH]2)CC1 [(5-chloro-1H-indol-2-yl)-(4-methyl-piperazin-1-yl)-methanone]

Ki [1, 4]: 0.083 µM
Compound: Cc1cc2[nH]c(=O)c(N3CCN(C)CC3)nc2cc1Cl [Example 20, 6-Chloro-7-methyl-3-(4-methyl-piperazin-1-yl)-1H-quinoxalin-2-one]

Ki [1, 4]: 0.112 µM
Compound: 7-Chloro-6-methyl-3-(4-methyl-piperazin-1-yl)-1H-quinoxalin-2-one; and 6-Chloro-7-methyl-3-(4-methyl-piperazin-1-yl)-1H-quinoxalin-2-one [Example 18]

Ki [1, 4]: 0.032 µM
Compound: CN1CCN(c2nc3cc(Cl)c(Cl)cc3[nH]c2=O)CC1 [Example 14, 6,7-Dichloro-3-(4-methyl-piperazin-1-yl)-1H-quinoxalin-2-one]
% Inh (Mast cells; HR antagonist 1 μM): 71%
% Inh (Mast cells; HR antagonist 10 μM): 80%

Ki [1, 4]: 0.074 µM
Compound: CN1CCN(c2nc3cc(F)c(F)cc3[nH]c2=O)CC1 [Example 17, 6,7-Difluoro-3-(4-methyl-piperazin-1-yl)-1H-quinoxalin-2-one]

Ki [1, 4]: 0.852 µM
Compound: Cc1cccc2nc(N3CCN(CCO)CC3)c(=O)[nH]c12 [Example 7, 3-[4-(2-Hydroxy-ethyl)-piperazin-1-yl]-8-methyl-1H-quinoxalin-2-one]

Ki [1, 4]: 0.093 µM
Compound: Cc1cc2nc(N3CCN(C)CC3)c(=O)[nH]c2cc1Cl [Example 19, 7-Chloro-6-methyl-3-(4-methyl-piperazin-1-yl)-1H-quinoxalin-2-one]

Ki [1, 4]: 0.011 µM
Compound: 3-(4-Methyl-piperazin-1-yl)-6-trifluoromethyl-1H-qui noxalin-2-one; and 3-(4-Methyl-piperazin-1-yl)-7-trifluoromethyl-1H-quinoxalin-2-one [Example 11]

Ki [1, 4]: 1.61 µM
Compound: CN1CCCN(c2nc3cc(Cl)c(Cl)cc3[nH]c2=O)CC1 [Example 16, 6,7-Dichloro-3-(4-methyl-[1,4]diazepan-1-yl)-1H-quinoxalin-2-one]

Ki [1, 4]: 0.012 µM
Ki ([1]; repeated in the mast cell chemotaxis table, read-out: Binding Assay Ki): 0.012 µM
Compound: 6-Chloro-7-fluoro-3-(4-methyl-piperazin-1-yl)-1H-quinoxalin-2-one; and 7-Chloro-6-fluoro-3-(4-methyl-piperazin-1-yl)-1H-quinoxalin-2-one [Example 25]
% Inh (Mast cells; HR antagonist 1 μM): 81%
% Inh (Mast cells; HR antagonist 10 μM): 79%

Ki [1, 4]: 0.166 µM
Compound: CN1CCN(c2nc3cc(C(F)(F)F)cc(Cl)c3[nH]c2=O)CC1 [Example 23, 8-Chloro-3-(4-methyl-piperazin-1-yl)-6-trifluoromethyl-1H-quinoxalin-2-one]

Ki [1, 4]: 0.467 µM
Compound: 3-piperazin-1-yl-6-trifluoromethyl-1H-quinoxalin-2-one; and 3-piperazin-1-yl-7-trifluoromethyl-1H-quinoxalin-2-one [Example 24]

Ki [1, 4]: 0.743 µM
Compound: 3-(3-Methyl-piperazin-1-yl)-6-trifluoromethyl-1H-quinoxalin-2-one; and 3-(3-Methyl-piperazin-1-yl)-7-trifluoromethyl-1H-qui noxalin-2-one [Example 28]

Ki [1, 4]: 0.64 µM
Compound: O=c1[nH]c2c([N+](=O)[O-])cccc2nc1N1CCNCC1 [Example 3, 8-Nitro-3-piperazin-1-yl-1H-quinoxalin-2-one]

Ki [1, 4]: 0.024 µM
Compound: CN1CCN(c2nc3cc(C(F)(F)F)ccc3[nH]c2=O)CC1 [Example 12, 3-(4-Methyl-piperazin-1-yl)-6-trifluoromethyl-1H-quinoxalin-2-one]
% Inh (Mast cells; HR antagonist 1 μM): 99%

Reference: patent US20050070527A1, “Quinoxaline compounds” (priority 2003, published 2005)
